# System: phospho-serine 2056 DNA-PK in HCT116 cells
# Assay: DNA-PK phosphorylation at serine 2056 (cellular), ELISA in bleomycin-treated HCT116 cells
# Format: cell-based
# Conditions: Homo sapiens, HCT-116, 6 h, cellular; HCT116 cells, 10 μM bleomycin, six hours; read-out: IC50 pDNA-PK
# Procedure: HCT116 cells were cultivated at 37° C. and 10% CO2 in MEM alpha medium with 10% of foetal calf serum and 2 mM glutamine. The cells were detached from the base of the culture vessels with the aid of trypsin/EDTA, centrifuged off in centrifuge tubes, taken up in fresh medium, and the cell density was determined. 100,000 cells were sown in 1 ml of culture medium per cavity of a 24-well cell culture plate and cultivated overnight. Next day, 10 μM bleomycin (DNA intercalator and inductor of DNA double-strand breaks) and test substances in fresh culture medium were added to the cells, and these were cultivated for a further six hours. […] The 96-well ELISA plates were subsequently treated with a detection antibody (Abcam ab79444: total DNA-PK) and a streptavidin-HRP conjugate. The development of the enzymatic reaction was carried out with the aid of a chemiluminescent reagent, the chemiluminescence was measured with the aid of a Mithras LB940. The signals with the phospho-DNA-PK-specific antibody were standardised to the signal with the antibody against the total protein DNA-PKc. […] The DMSO control was used as blank.
row,Compound,IC50 [µM]
1,"CC(C)(C)Oc1nccnc1C(O)c1ccc(F)c(-c2ncnc3cc(N4CCOCC4)ccc23)c1 (stereo not drawn) [Example 13, (3-tert-Butoxy-pyrazin-2-yl)-[4-fluoro-3-(7-morpholin-4-yl-quinazolin-4-yl)phenyl]-methanol]",10 to 30
2,"Cn1nccc1C(O)c1ccc(F)c(-c2nc(Cl)nc3cc(N4CCOCC4)ccc23)c1 (stereo not drawn) [Example 214, [3-(2-Chloro-7-morpholin-4-yl-quinazolin-4-yl)-4-fluoro-phenyl]-(2-methyl-2H-pyrazol-3-yl)-methanol]",10 to 30

# The next lines start with the values.
row,IC50 [µM],Compound
1,10 to 30,"O=c1[nH]ccnc1C(O)c1ccc(F)c(-c2ncnc3cc(N4CCOCC4)ccc23)c1 (stereo not drawn) [Example 5, 3-{[4-Fluoro-3-(7-morpholin-4-yl-quinazolin-4-yl)phenyl]-hydroxymethyl}-1H-pyrazin-2-one]"
2,< 0.5,"OC(c1ccc(F)c(-c2ncnc3cc(N4CCOCC4)ccc23)c1)c1ncccc1Cl (stereo not drawn) [Example 42, (3-Chloro-pyridin-2-yl)-[4-fluoro-3-(7-morpholin-4-yl-quinazolin-4-yl)phenyl]-methanol]"
3,< 0.5,"OC(c1ccc(F)c(-c2ncnc3cc(N4CCOCC4)ccc23)c1)c1ncccc1OC(F)F (stereo not drawn) [Example 81, (3-Difluoromethoxy-pyridin-2-yl)-[4-fluoro-3-(7-morpholin-4-yl-quinazolin-4-yl)-phenyl]methanol]"
4,< 0.5,"Cc1nccnc1[C@H](O)c1ccc(F)c(-c2ncnc3cc(N4CCOCC4)ccc23)c1 [Example 83, (R)-[4-Fluoro-3-(7-morpholin-4-yl-quinazolin-4-yl)-phenyl]-(3-methyl-pyrazin-2-yl)methanol]"

# Same assay, conditions: Homo sapiens, HCT-116, cellular DNA-PK phosphorylation at serine 2056, HCT116 cells; read-out: IC50 pDNA-PK
row,Compound,IC50 [µM]
1,"COc1nccnc1C(O)c1cc(-c2ncnc3cc(N4CCOCC4)ccc23)ccc1F (stereo not drawn) [Example 394, [2-Fluoro-5-(7-morpholin-4-yl-quinazolin-4-yl)-phenyl]-(3-methoxy-pyrazin-2-yl)-methanol]",0.5 to 5
2,"Cn1c(C(O)c2cc(-c3ncnc4cc(N5CCOCC5)ccc34)c(F)cc2F)cccc1=O (stereo not drawn) [Example 380, 6-{[2,4-Difluoro-5-(7-morpholin-4-yl-quinazolin-4-yl)-phenyl]hydroxy-methyl}-1-methyl-1H-pyridin-2-one (Ena 2)]",0.5 to 5
3,"COc1cncnc1C(O)c1cc(-c2ncnc3cc(N4CCOCC4)ccc23)c(F)cc1F (stereo not drawn) [Example 448, [2,4-Difluoro-5-(7-morpholin-4-yl-quinazolin-4-yl)-phenyl]-(5-methoxy-pyrimidin-4-yl)-methanol]",0.5 to 5
4,COc1nccnc1C(O)c1cc(-c2ncnc3cc(N4CCOCC4)ccc23)c(F)cc1F (stereo not drawn) [Example 453],< 0.5
5,"Cc1nccnc1C(O)c1cc(-c2ncnc3cc(N4CCOCC4)ccc23)ccc1F (stereo not drawn) [Example 393, [2-Fluoro-5-(7-morpholin-4-yl-quinazolin-4-yl)-phenyl]-(3-methyl-pyrazin-2-yl)-methanol]",5 to 10

# Second part, the compound after the results:
row,IC50 [µM],Compound
1,0.5 to 5,"O=c1ccc(C(O)c2ccc(F)c(-c3ncnc4cc(N5CCOCC5)ccc34)c2)n[nH]1 (stereo not drawn) [Example 367, 6-{[4-Fluoro-3-(7-morpholin-4-yl-quinazolin-4-yl)phenyl]-hydroxymethyl}-2H-pyridazin-3-one]"
2,< 0.5,"OC(c1ccc(F)c(-c2ncnc3cc(N4CCOCC4)ccc23)c1)c1ncnc2sccc12 (stereo not drawn) [Example 437, [4-Fluoro-3-(7-morpholin-4-yl-quinazolin-4-yl)-phenyl]thieno[2,3-d}-pyrimidin-4-yl-methanol]"

# Same assay, conditions: Homo sapiens, HCT-116, phospho-serine 2056 DNA-PK, bleomycin-treated HCT116 cells; class symbols A-D; read-out: IC50 pDNA-PK
row,Compound,IC50 [µM]
1,"O=C(O)COc1ccc(C(O)c2cc(-c3ncnc4cc(N5CCOCC5)ccc34)c(F)cc2Cl)nn1 (stereo not drawn) [Example 113, (6-{[2-Chloro-4-fluoro-5-(7-morpholin-4-yl-quinazolin-4-yl)-phenyl]hydroxy-methyl}pyridazin-3-yl-oxy)acetic acid]",10 to 30
2,"Cc1nc(C(O)c2cc(-c3ncnc4cc(N5CCOCC5)ccc34)cnc2F)sc1C (stereo not drawn) [Example 205, (4,5-Dimethyl-thiazol-2-yl)-[2-fluoro-5-(7-morpholin-4-yl-quinazolin-4-yl)-pyridin-3-yl]-methanol]",10 to 30

# Continued, values first:
row,IC50 [µM],Compound
1,0.5 to 5,"OC(c1cc(F)c(F)c(-c2ncnc3cc(N4CCOCC4)ccc23)c1)c1nccs1 (stereo not drawn) [Example 171, [3,4-Difluoro-5-(7-morpholin-4-yl-quinazolin-4-yl)-phenyl]thiazol-2-yl-methanol]"
2,10 to 30,"OC(c1ccc(F)c(-c2ncnc3cc(C4=CCOCC4)ccc23)c1)c1nccs1 (stereo not drawn) [Example 139, {3-[7-(3,6-Dihydro-2H-pyran-4-yl)-quinazolin-4-yl]-4-fluoro-phenyl}-thiazol-2-ylmethanol]"
3,0.5 to 5,"OC(c1ccc(F)c(-c2ncnc3cc(N4CCOCC4)sc23)c1)c1nccs1 (stereo not drawn) [Example 145, [4-Fluoro-3-(6-morpholin-4-yl-thieno[3,2-d}-pyrimidin-4-yl)-phenyl]thiazol-2-yl-methanol]"
4,0.5 to 5,"Cc1csc(C(O)c2cc(-c3ncnc4cc(N5CCOCC5)ccc34)c(F)cc2Cl)n1 (stereo not drawn) [Example 181, [2-Chloro-4-fluoro-5-(7-morpholin-4-yl-quinazolin-4-yl)-phenyl]-(4-methyl-thiazol-2-yl)-methanol]"

# Same assay, conditions: Homo sapiens, HCT-116, phospho-serine 2056 DNA-PK, bleomycin-treated HCT116 cells; read-out: IC50 pDNA-PK
row,Compound,IC50 [µM]
1,"NC(=O)C(c1cc(-c2ncnc3cc(N4CCOCC4)ccc23)c(F)cc1Cl)c1ncnn2cccc12 (stereo not drawn) [Example 309, 2-[2-Chloro-4-fluoro-5-(7-morpholin-4-yl-quinazolin-4-yl)-phenyl]-2-[3H-pyrrolo[2,1-f][1,2,4]-triazin-(4E)-ylidene]-acetamide]",10 to 30
2,"[2H]c1c(N2CCOCC2)cc2ncnc(-c3cc(C(O)c4ccc(OC)nn4)c(Cl)cc3F)c2c1[2H] (stereo not drawn) [Example 225, [2-Chloro-5-(5,6-dideuterio-7-morpholino-quinazolin-4-yl)-4-fluorophenyl]-(6-methoxypyridazin-3-yl)methanol]",< 0.5
3,"NC(=O)C(c1ccc(F)c(-c2ncnc3cc(N4CCOCC4)ccc23)c1)c1cncc(F)c1Cl (stereo not drawn) [Example 322, 2-(4-Chloro-5-fluoro-pyridin-3-yl)-2-[4-fluoro-3-(7-morpholin-4-yl-quinazolin-4-yl)-phenyl]acetamide]",0.5 to 5
4,"Cc1nccnc1Cc1ccc(F)c(-c2ncnc3cc(N4CCOCC4)ccc23)c1 [Example 349, 4-[2-Fluoro-5-(3-methyl-pyrazin-2-ylmethyl)phenyl]-7-morpholin-4-yl-quinazoline]",< 0.5
5,"COc1ccc(C(C(N)=O)c2cc(-c3ncnc4cc(N5CCOCC5)ccc34)c(F)cc2F)nn1 (stereo not drawn) [Example 306, 2-[2,4-Difluoro-5-(7-morpholin-4-yl-quinazolin-4-yl)-phenyl]-2-(6-methoxy-pyridazin-3-yl)acetamide]",10 to 30
6,"Cn1c(C(C(N)=O)c2cc(-c3ncnc4cc(N5CCOCC5)ccc34)c(F)cc2Cl)cccc1=O (stereo not drawn) [Example 312, 2-[2-Chloro-4-fluoro-5-(7-morpholin-4-yl-quinazolin-4-yl)-phenyl]-2-(1-methyl-6-oxo-1,6-dihydro-pyridin-2-yl)-acetamide]",10 to 30
7,"COc1nccnc1C(C(N)=O)c1cc(-c2ncnc3cc(N4CCOCC4)cc(F)c23)c(F)cc1Cl (stereo not drawn) [Example 261, 2-[2-Chloro-4-fluoro-5-(5-fluoro-7-morpholin-4-yl-quinazolin-4-yl)-phenyl]-2-(3-methoxy-pyrazin-2-yl)acetamide]",0.5 to 5

# Other lines, results leading:
row,IC50 [µM],Compound
1,10 to 30,"OC(c1ccc(F)c(-c2ncnc3cc(N4CCOCC4)ccc23)c1)c1nccn2cnnc12 (stereo not drawn) [Example 351, [4-Fluoro-3-(7-morpholin-4-yl-quinazolin-4-yl)-phenyl]-[1,2,4]-triazolo[4,3-a]-pyrazin-8-ylmethanol]"
2,< 0.5,"Cc1nccnc1[C@H](O)c1ccc(F)c(-c2ncnc3cc(N4CCOCC4)cc(F)c23)c1 [Example 248, (R)-[4-Fluoro-3-(5-fluoro-7-morpholin-4-ylquinazolin-4-yl)-phenyl]-(3-methyl-pyrazin-2-yl)-methanol]"

# Same assay, conditions: cellular DNA-PK phosphorylation at serine 2056, HCT116 cells; read-out: IC50 pDNA-PK
row,IC50 [µM],Compound
1,0.5 to 5,"Cn1c(C(O)c2cc(-c3ncnc4cc(N5CCOCC5)ccc34)c(F)cc2F)cccc1=O (stereo not drawn) [Example 381, 6-{[2,4-Difluoro-5-(7-morpholin-4-yl-quinazolin-4-yl)-phenyl]hydroxy-methyl}-1-methyl-1H-pyridin-2-one (Ena 1)]"
2,< 0.5,"Cn1c(C(O)c2cc(-c3ncnc4cc(N5CCOCC5)ccc34)c(F)cc2Cl)cccc1=O (stereo not drawn) [Example 435, 6-{[2-Chloro-4-fluoro-5-(7-morpholin-4-yl-quinazolin-4-yl)-phenyl]hydroxy-methyl}-1-methyl-1H-pyridin-2-one]"
3,< 0.5,"Cn1c(C(O)c2cc(-c3ncnc4cc(N5CCOCC5)ccc34)c(F)cc2Cl)cccc1=O (stereo not drawn) [Example 383, 6-{[2-Chloro-4-fluoro-5-(7-morpholin-4-yl-quinazolin-4-yl)-phenyl]hydroxy-methyl}-1-methyl-1H-pyridin-2-one (Ena 1)]"

# Same assay, conditions: cellular; HCT116 cells, 10 μM bleomycin, six hours; read-out: IC50 pDNA-PK
row,IC50 [µM],Compound
1,< 0.5,"OC(c1ccc(F)c(-c2ncnc3cc(N4CCOCC4)sc23)c1)c1nccnc1Cl (stereo not drawn) [Example 37, (3-Chloropyrazin-2-yl)-[4-fluoro-3-(6-morpholin-4-ylthieno[3,2-d}pyrimidin-4-yl)phenyl]-methanol]"
2,< 0.5,"OC(c1ccc2nccn2n1)c1cc(-c2ncnc3cc(N4CCOCC4)ccc23)c(F)cc1Cl (stereo not drawn) [Example 57, [2-Chloro-4-fluoro-5-(7-morpholin-4-yl-quinazolin-4-yl)phenyl]-imidazo[1,2-b]pyridazin-6-ylmethanol]"
